From US20030134865A1, “Modulation of histone deacetylase” (priority 2003, published 2003)

Experiments:
HDAC2 [1] = target: T1, HDAC2 (Homo sapiens, UniProt Q92769); experiment: Immunoprecipitated HDAC2 activity; type: cell-based; details: theophylline 10^−5 M
T1 construct: endogenous in cells
Excerpt: (§1) FIG. 22. Effect of theophylline on HDAC1, HDAC2 and HDAC3 activity.
(§2) Using IP-HAT assays we were able to determine which HDACs were the target for theophylline action.

HDAC1 [2] = experiment: HDAC1 expression in A549 cells (Western blot); type: cell-based
Procedure: (§3) FIG. 12. Effect of theophylline on HDAC expression. […]. Band densities were controlled for protein loading by comparison with β-actin expression. Results are shown as relative band densities.
(§4) Western blotting: Immunoprecipitates, whole cell extractions or isolated histones were measured by SDS-PAGE and Western blot analysis using ECL (Amersham, Amersham, UK). Proteins were size-fractionated by SDS-PAGE and transferred to Hybond-ECL membranes. Specific protein bands were detected by ECL according to the manufacturer's instructions.

[3] = test system: histone deacetylase (HDAC) activity, A549 cells; experiment: Histone deacetylation activity in total cellular extracts of treated A549 cells
Procedure: (B) Effect of Trichostatin A (TSA) on histone deacetylase activity and histone H4 acetylation. Cells were treated with increasing concentrations of TSA for 6 hrs before total cellular proteins were isolated and analysed for deacetylase activity and also histone acetylation by Western blotting using an anti-pan acetylated histone H4 antibody.
Effect of theophylline on histone deacetylase (HDAC) activity in A549 cells. (a) Cells were stimulated with LPS (3 ng/ml) for 24 hours in the presence or absence of theophylline (10^−5 M) or Dex (10^−6 M). Total cellular proteins were extracted and histone deacetylase activity measured. (b) Direct effect of theophylline on HDAC activity. […] Results are expressed as mean±SEM (n=3-5, *p<0.05, **p<0.01).

HDAC3 = target: T2, HDAC3 (Homo sapiens, UniProt O15379); experiment: Immunoprecipitated HDAC3 activity; type: cell-based; details: theophylline 10^−5 M
T2 construct: endogenous in cells
T2 sequence (O15379 whole entry): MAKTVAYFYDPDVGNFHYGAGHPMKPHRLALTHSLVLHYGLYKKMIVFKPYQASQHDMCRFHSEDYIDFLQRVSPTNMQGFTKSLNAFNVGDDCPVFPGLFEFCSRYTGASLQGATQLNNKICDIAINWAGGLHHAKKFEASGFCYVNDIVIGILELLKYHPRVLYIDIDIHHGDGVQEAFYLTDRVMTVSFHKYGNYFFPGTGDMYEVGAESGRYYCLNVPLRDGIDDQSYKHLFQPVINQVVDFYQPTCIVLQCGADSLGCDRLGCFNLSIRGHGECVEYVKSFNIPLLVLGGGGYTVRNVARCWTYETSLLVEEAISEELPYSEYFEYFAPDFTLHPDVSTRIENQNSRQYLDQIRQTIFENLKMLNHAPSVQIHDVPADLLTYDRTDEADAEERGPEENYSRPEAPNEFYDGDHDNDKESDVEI
T2 sequence (Q9Y618 whole entry partner): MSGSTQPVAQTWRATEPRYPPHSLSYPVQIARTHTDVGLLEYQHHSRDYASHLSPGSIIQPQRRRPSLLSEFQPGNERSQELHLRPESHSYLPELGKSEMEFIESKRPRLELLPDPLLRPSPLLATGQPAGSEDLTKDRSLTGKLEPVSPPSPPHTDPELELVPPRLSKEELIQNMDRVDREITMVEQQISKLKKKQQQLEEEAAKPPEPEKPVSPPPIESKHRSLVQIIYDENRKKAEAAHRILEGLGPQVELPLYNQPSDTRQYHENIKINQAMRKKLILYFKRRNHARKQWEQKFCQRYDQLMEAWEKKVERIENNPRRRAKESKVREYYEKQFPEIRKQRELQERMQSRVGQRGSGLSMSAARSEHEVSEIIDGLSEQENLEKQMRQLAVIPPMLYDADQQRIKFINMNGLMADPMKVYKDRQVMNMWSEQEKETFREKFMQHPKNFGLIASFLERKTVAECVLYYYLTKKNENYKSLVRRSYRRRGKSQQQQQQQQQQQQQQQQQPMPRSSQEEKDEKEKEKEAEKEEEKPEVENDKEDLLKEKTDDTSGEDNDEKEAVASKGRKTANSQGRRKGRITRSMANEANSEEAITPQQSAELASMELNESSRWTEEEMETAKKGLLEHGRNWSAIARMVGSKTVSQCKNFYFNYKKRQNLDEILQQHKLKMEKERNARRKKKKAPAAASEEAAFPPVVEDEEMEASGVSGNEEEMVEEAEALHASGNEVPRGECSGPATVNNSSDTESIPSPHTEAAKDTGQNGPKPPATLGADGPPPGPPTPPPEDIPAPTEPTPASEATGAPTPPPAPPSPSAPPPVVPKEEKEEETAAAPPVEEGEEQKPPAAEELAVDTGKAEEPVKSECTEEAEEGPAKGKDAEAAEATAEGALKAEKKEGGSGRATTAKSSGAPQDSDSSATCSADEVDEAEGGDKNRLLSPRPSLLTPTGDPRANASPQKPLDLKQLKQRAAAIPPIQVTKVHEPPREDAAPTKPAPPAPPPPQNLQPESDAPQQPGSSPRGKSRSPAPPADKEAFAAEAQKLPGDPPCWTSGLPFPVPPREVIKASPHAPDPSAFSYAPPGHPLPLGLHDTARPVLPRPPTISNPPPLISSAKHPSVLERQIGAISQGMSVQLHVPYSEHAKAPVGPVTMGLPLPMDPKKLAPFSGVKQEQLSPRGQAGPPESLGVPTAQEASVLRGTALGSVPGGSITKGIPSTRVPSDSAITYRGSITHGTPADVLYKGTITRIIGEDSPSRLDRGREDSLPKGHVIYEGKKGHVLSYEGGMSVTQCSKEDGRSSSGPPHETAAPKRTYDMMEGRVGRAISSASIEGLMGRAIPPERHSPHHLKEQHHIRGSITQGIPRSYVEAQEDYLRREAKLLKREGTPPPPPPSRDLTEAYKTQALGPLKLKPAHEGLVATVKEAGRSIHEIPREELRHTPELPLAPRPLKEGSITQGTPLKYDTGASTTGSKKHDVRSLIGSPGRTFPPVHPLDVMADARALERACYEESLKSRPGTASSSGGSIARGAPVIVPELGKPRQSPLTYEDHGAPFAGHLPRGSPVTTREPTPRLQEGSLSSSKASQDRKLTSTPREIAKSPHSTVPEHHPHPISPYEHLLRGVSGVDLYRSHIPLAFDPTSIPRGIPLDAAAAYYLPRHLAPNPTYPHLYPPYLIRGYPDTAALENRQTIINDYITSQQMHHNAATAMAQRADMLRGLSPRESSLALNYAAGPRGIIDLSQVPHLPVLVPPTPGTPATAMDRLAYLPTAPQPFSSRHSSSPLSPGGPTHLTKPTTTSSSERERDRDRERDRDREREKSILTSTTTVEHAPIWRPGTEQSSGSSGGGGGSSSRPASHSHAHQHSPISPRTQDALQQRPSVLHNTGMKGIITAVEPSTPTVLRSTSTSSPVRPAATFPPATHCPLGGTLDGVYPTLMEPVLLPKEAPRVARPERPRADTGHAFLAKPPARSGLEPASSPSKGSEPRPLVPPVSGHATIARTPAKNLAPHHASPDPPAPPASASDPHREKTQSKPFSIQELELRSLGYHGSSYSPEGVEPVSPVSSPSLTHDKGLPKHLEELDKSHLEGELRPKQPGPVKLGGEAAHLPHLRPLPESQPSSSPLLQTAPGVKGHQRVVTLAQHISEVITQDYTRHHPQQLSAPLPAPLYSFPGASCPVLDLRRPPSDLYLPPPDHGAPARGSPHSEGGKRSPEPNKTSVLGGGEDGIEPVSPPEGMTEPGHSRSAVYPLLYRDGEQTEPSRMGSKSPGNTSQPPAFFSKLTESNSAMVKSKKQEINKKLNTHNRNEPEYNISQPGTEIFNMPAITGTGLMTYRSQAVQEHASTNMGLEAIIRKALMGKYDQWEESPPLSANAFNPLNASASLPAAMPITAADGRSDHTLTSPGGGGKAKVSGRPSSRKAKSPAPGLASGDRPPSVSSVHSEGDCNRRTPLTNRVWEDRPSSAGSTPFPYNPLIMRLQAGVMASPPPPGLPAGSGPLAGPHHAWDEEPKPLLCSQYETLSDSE
Excerpt: as §1, §2

[4] = test system: HDAC activity, alveolar macrophages; experiment: HDAC activity in alveolar macrophages from non-smokers or smokers; details: theophylline 10^−5 M, dexamethasone 10^−10 M
[5] = Double-blind cross-over study of low dose theophylline in mild stable asthmatic subjects; details: 5 weeks low dose theophylline
Excerpt: Patients: Fifteen mild stable asthmatic subjects (Table 1) receiving treatment with only the inhaled β2-adrenergic agonist aerosol, albuterol, for intermittent relief of wheeze were recruited. […] All patients were atopic as defined by two or more positive skin prick tests to common allergens. […] Current smokers or ex-smokers of more than five pack years and patients with FEV1 less than 80% predicted were excluded.
Fibreoptic bronchoscopy and isolation of BAL macrophages: Subjects attended our bronchoscopy suite at 8.30 am after having fasted from midnight and were pretreated with atropine (0.6 mg iv) and midazolam (5-10 mg iv). Oxygen (31/min) was administered via nasal prongs throughout the procedure and oxygen saturation was monitored with a digital oximeter. Using local anaesthesia with lidocaine (4%) to the upper airways and larynx, a fibreoptic bronchoscope (Olympus BF10) was passed through the nasal passages into the trachea. Bronchoalveolar lavage (BAL) was performed from the right middle lobe using warmed 0.9% NaCl with 4 successive aliquots of 60 mls of 0.9% NaCl. […] Cytospins were prepared and stained with May-Grunwald stain for differential cell counts. Cell viability was assessed using trypan blue exclusion.

[6] = test system: HDAC activity, BAL macrophages; experiment: HDAC activity in BAL macrophages; type: cell-based, human; details: 24 hours
[7] = test system: GM-CSF release, A549 cells; experiment: GM-CSF release from A549 cells (ELISA)
Procedure: Determination of GM-CSF expression was measured by sandwich ELISA (Pharmingen, Lugano, Switzerland) according to the manufacturer's instructions.
GM-CSF ELISA: Determination of GM-CSF expression was measured by sandwich ELISA (Pharmingen, Lugano, Switzerland) according to the manufacturer's instructions.

HDAC2 [8] = experiment: HDAC2 expression in A549 cells (Western blot); type: cell-based; details: for HDAC2 expression: A549 cells
Excerpt: […]. Proteins were extracted and size fractionated by SDS-PAGE and HDAC2 detected by Western blotting. Densitometric analysis of HDAC2 expression is shown graphically in the lower panel. Data from 3 separate experiments was normalised to β-actin and results expressed as mean±SEM. *p<0.05.
as §3
Immunoprecipitates, whole cell extractions or isolated histones were measured by SDS-PAGE and Western blot analysis using ECL (Amersham, Amersham, UK). Proteins were size-fractionated by SDS-PAGE and transferred to Hybond-ECL membranes. Immunoreactive bands were detected by ECL.
as §4

HDAC2 [9] = experiment: HDAC2 expression in bronchial biopsies of treated asthmatics (Western blot); type: in vivo, human; details: placebo 0.28±0.08, p=0.1
Excerpt: (§5) FIG. 16. Effect of theophylline on HDAC expression and activity in vivo. (a) Western blot analysis of HDAC1 and HDAC 2 expression in bronchial biopsies from mild asthmatic subjects treated with low dose theophylline (LDT) or placebo. (b) Graphical expression of the effect of LDT and placebo on HDAC1 and HDAC2 expression relative to β-actin. (c) Effect of LDT and P on HDAC activity in bronchial biopsies. N=14.
as §4

[10] = test system: histone acetyltransferase (HAT) activity, A549 cells
Procedure: (a) Cells were stimulated with LPS (3 ng/ml) for 24 hours in the presence or absence of theophylline (10^−5 M) or Dex (10^−6 M). Total cellular proteins were extracted and histone acetylase activity measured. (b) GM-CSF release into the culture medium was measured after 6 hours by ELISA.
After incubation for 10 min at 37° C. cells were stimulated for 6 hr. Histones were isolated and separated by electrophoresis on SDS-16% polyacrylamide gel. Gels were stained with Coommasie brilliant blue and the core histones (H2A, H2B, H3 and H4) excised. The radioactivity in extracted core histones was determined by liquid scintillation counting and normalised to protein level.

HDAC activity [11] = experiment: Total HDAC activity in bronchial biopsies of treated asthmatics; type: in vivo, human; details: placebo 67±12, p<0.05
Excerpt: as §5

HDAC1 [12] = experiment: HDAC1 expression in bronchial biopsies of treated asthmatics (Western blot); type: in vivo, human; details: placebo 0.28±0.09, p<0.05
Excerpt: as §5, §4

HDAC activity [13] = experiment: Direct effect on HDAC activity of nuclear proteins from untreated A549 cells; type: biochemical
Procedure: FIG. 13. […] (a) Direct effect of the PDE4 inhibitor rolipram (10 μM) and the adenosine receptor antagonist CGS-15943 (10 μM) on HDAC activity. […] (b) Direct effect of the MEK inhibitor PD089159 (1 μM) and the p38 MAPK inhibitor SB203580 on theophylline induced HDAC activity.

[14] = test system: IL-8 release, alveolar macrophages; experiment: LPS-induced IL-8 release from alveolar macrophages; type: cell-based, human; details: macrophages from non-smokers
HDAC1 [15] = target: T3, HDAC1 (Homo sapiens, UniProt Q13547); experiment: Immunoprecipitated HDAC1 activity; type: cell-based; details: theophylline 10^−5 M
T3 construct: endogenous in cells
T3 sequence (Q13547 whole entry): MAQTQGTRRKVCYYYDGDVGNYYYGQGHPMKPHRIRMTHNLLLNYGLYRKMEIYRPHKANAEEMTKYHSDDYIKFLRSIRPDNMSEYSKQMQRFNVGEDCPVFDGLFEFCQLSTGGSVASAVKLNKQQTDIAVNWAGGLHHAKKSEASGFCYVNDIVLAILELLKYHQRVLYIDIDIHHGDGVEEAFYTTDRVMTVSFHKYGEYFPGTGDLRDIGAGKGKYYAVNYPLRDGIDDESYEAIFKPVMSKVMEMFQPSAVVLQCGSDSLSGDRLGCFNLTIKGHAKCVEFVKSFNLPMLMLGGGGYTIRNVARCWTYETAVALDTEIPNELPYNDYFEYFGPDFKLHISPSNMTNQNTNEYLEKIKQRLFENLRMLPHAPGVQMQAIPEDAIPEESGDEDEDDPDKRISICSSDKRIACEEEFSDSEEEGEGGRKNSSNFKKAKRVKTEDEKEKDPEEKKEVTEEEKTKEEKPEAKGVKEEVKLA
Excerpt: as §1, §2

[16] = theophylline 10^−5 M, dexamethasone 10^−10 M

T1 sequence (Q92769 whole entry): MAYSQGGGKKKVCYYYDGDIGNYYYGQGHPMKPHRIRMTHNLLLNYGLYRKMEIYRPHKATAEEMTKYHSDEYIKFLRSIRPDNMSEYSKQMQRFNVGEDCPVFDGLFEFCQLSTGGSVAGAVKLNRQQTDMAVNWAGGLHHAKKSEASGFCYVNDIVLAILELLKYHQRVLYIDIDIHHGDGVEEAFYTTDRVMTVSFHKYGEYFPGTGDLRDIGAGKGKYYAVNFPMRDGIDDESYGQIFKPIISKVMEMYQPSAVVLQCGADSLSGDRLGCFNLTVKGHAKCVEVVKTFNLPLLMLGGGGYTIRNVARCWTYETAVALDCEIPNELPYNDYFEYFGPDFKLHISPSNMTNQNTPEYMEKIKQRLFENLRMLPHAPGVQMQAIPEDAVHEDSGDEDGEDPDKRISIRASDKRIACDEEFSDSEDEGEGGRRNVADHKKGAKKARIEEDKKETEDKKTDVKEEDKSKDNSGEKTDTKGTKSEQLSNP

Cn1c(=O)c2[nH]cnc2n(C)c1=O [theophylline]
HDAC2 activity (HDAC2 [1]): without having any effect
HDAC1 expression (HDAC1 [2]; 24 hours, theophylline 10^−4 M): induced
HDAC1 expression (HDAC1 [2]; 24 hrs): no effect
total cell HDAC activity after IL-1β plus H2O2 ([3]; 4 hrs, theophylline pre-treatment 10^−5 M, 10 min): significantly increased
total cell HDAC activity in LPS-stimulated cells ([3]; pretreatment 60 min, up to 10^−5 M, measured at 24 hrs): significantly increased
HDAC3 activity (HDAC3): significant induction
HDAC activity, macrophages from non-smokers [4]: significantly enhanced
BAL eosinophils [5]: 1.7±0.28%
FEV1 [5]: 3.4±0.09
FEV1 (% predicted) [5]: 92.8 ± 2.6%
Muscosal eosinophils [5]: 1.19 ± 0.43
NO [5]: 23.2 ± 3.8
PC20 methacholine [5]: 1.2±0.35
PEF am [5]: 469±19
mucosal eosinophils [5]: 1.19±0.43 eosinophils/high powered field
BAL eosinophils ([5]; listed as Theophylline): 1.7 ± 0.28%
FEV1 ([5]; listed as Theophylline): 3.42 ± 0.09
PC20 methacholine ([5]; listed as Theophylline): 1.2 ± 0.35
PEF am ([5]; listed as Theophylline): 469 ± 19
HDAC activity at 10^−4 M [6]: decreased to control levels
concentration of maximal increase in HDAC activity [6]: 10^−5 M
HDAC activity ([6]; rolipram 10 μM): concentration-dependent increase
LPS-induced GM-CSF release ([7]; LPS 3 ng/ml): not associated with a significant reduction
GM-CSF release after IL-1β plus H2O2, each alone [7, 16]: neither theophylline (10^−5 M) nor dexamethasone (10^−10 M) alone had any effect
IL-1β-stimulated GM-CSF release, each alone [7, 16]: failed to inhibited
decrease in IL-1β-stimulated GM-CSF release ([7]; theophylline 10^−5 M, dexamethasone 10^−10 M, alone or combined): 20%
IL-1β+H2O2-induced reduction in HDAC2 expression (HDAC2 [8]; 24 hrs): restored
HDAC2 expression (HDAC2 [8]; 24 hrs): no effect
HDAC2 expression (HDAC2 [8]; 24 hours): no effect
HDAC2 expression relative to β-actin (HDAC2 [9]): 0.49±0.20
basal HAT activity [10]: Neither theophylline nor dexamethasone had any effect
LPS-induced whole cell HAT activity ([10]; LPS 3 ng/ml, 24 hrs): significant concentration-dependent inhibitory effect
total HDAC activity in biopsies (HDAC activity [11]): 111±15 dpm/mg protein
HDAC1 expression relative to β-actin (HDAC1 [12]): 0.44±0.06
direct effect on HDAC activity at higher concentrations (HDAC activity [13]; 10^−4-10^−3 M): inhibited HDAC activity
concentration of maximum increase in HDAC activity (direct) (HDAC activity [13]; nuclear extracts): 10^−5 M
direct effect on HDAC activity (HDAC activity [13]; nuclear extracts, IBMX 500 μM, rolipram 10 μM, CGS-15943 10 μM): concentration-dependent increase
LPS-induced IL-8 release [14]: no effect
HDAC1 activity (HDAC1 [15]): significant induction
